Laboratory results: patent US20120184769A1, “METHOD FOR ISOLATING […]-N,N-DIACETONITRILE” (BASF SE, priority 2009, published 2012)

Assay: Solubility of MGDN in water or aqueous ammonium sulfate solution
Assay type: physicochemical

dissolved MGDN in the aqueous solution (emulsion formed) (above about 60° C., emulsion of MGDN and its aqueous solution): more than 5 % by weight | solubility of MGDN in water (at 10° C., in water or an aqueous ammonium sulfate solution): about 0.5 % by weight | solubility of MGDN in water (at around 60° C.): about 5 % by weight
SMILES: CC(C#N)N(CC#N)CC#N (stereo not drawn) [MGDN, methylglycinenitrile-N,N-diacetonitrile]
